Key:
[1] = Biodistribution: organ distribution of F-18 signal in mice; assay type: in vivo, male NMRI mice; details: for Organ distribution of F-18 signal, intestine: intestine (with content); for Organ distribution of F-18 signal, stomach: stomach (without content)
Summary of the method: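 Male NMRI mice (~30 g, 3 per time point) received ca. 150 kBq of the test compound i.v. via tail vein. At 2, 5, 30, 60 and 240 min, urine and feces were collected and organs and tissues taken for gamma counting. Values are decay-corrected % ID/g ± SD.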

Aβ plaques = biological target: T1, Aβ plaques (Homo sapiens, UniProt P05067); assay: Autoradiographical analysis of binding to cryosections from cortex of AD patients and controls; details: F-18 labeled compound; Alzheimer's disease patients (AD) vs controls without Aβ plaques
T1 construct: controls without Aβ plaques; from tissue; host or cells: frontal lobe / cortex sections (frozen and paraffin) from AD patients, FTD patients and age-matched controls
Summary of the method: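 Frozen (18 μm) and deparaffinized paraffin (6 μm) frontal-lobe sections from Alzheimer's, frontotemporal dementia and age-matched control brains were incubated 1.5 h at room temperature with F-18 test compound at 10 Bq/μl in 25 mM Hepes pH 7.4, 0.1% BSA. Blocking used 1000-fold excess unlabeled compound; phosphoimager readout.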

T1 sequence (P05067 672-713 limits assumed): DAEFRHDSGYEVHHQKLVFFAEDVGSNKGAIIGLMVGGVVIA

Structure (SMILES): O=C(NCC(=O)N1CCN(c2ccc(OCc3ccccc3)cc2)CC1)c1cccnc1[18F] [Example 12c, N-{2-[4-(4-Benzyloxy-phenyl)-piperazin-1-yl]-2-oxoethyl}-2-[F-18]-fluoro-nicotinamide]
- Organ distribution of F-18 signal, adrenals ([1]; 2 min post i.v. injection): 6.60 % ID/g
- Organ distribution of F-18 signal, adrenals ([1]; 5 min post i.v. injection): 10.38 % ID/g
- Organ distribution of F-18 signal, adrenals ([1]; 30 min post i.v. injection): 2.77 % ID/g
- Organ distribution of F-18 signal, adrenals ([1]; 60 min post i.v. injection): 1.55 % ID/g
- Organ distribution of F-18 signal, adrenals ([1]; 240 min post i.v. injection): 0.40 % ID/g
- Organ distribution of F-18 signal, blood ([1]; 2 min post i.v. injection): 1.78 % ID/g
- Organ distribution of F-18 signal, blood ([1]; 5 min post i.v. injection): 1.90 % ID/g
- Organ distribution of F-18 signal, blood ([1]; 30 min post i.v. injection): 1.30 % ID/g
- Organ distribution of F-18 signal, blood ([1]; 60 min post i.v. injection): 0.70 % ID/g
- Organ distribution of F-18 signal, blood ([1]; 240 min post i.v. injection): 0.09 % ID/g
- Organ distribution of F-18 signal, brain ([1]; 2 min post i.v. injection): 5.37 % ID/g
- Organ distribution of F-18 signal, brain ([1]; 5 min post i.v. injection): 4.60 % ID/g
- Organ distribution of F-18 signal, brain ([1]; 30 min post i.v. injection): 1.28 % ID/g
- Organ distribution of F-18 signal, brain ([1]; 60 min post i.v. injection): 0.60 % ID/g
- Organ distribution of F-18 signal, brain ([1]; 240 min post i.v. injection): 0.07 % ID/g
- Organ distribution of F-18 signal, fat ([1]; 2 min post i.v. injection): 1.00 % ID/g
- Organ distribution of F-18 signal, fat ([1]; 5 min post i.v. injection): 1.92 % ID/g
- Organ distribution of F-18 signal, fat ([1]; 30 min post i.v. injection): 1.89 % ID/g
- Organ distribution of F-18 signal, fat ([1]; 60 min post i.v. injection): 1.29 % ID/g
- Organ distribution of F-18 signal, fat ([1]; 240 min post i.v. injection): 0.11 % ID/g
- Organ distribution of F-18 signal, femur ([1]; 2 min post i.v. injection): 1.70 % ID/g
- Organ distribution of F-18 signal, femur ([1]; 5 min post i.v. injection): 1.63 % ID/g
- Organ distribution of F-18 signal, femur ([1]; 30 min post i.v. injection): 5.55 % ID/g
- Organ distribution of F-18 signal, femur ([1]; 60 min post i.v. injection): 7.65 % ID/g
- Organ distribution of F-18 signal, femur ([1]; 240 min post i.v. injection): 7.96 % ID/g
- Organ distribution of F-18 signal, heart ([1]; 2 min post i.v. injection): 4.76 % ID/g
- Organ distribution of F-18 signal, heart ([1]; 5 min post i.v. injection): 4.28 % ID/g
- Organ distribution of F-18 signal, heart ([1]; 30 min post i.v. injection): 1.52 % ID/g
- Organ distribution of F-18 signal, heart ([1]; 60 min post i.v. injection): 0.69 % ID/g
- Organ distribution of F-18 signal, heart ([1]; 240 min post i.v. injection): 0.08 % ID/g
- Organ distribution of F-18 signal, intestine ([1]; 2 min post i.v. injection): 1.78 % ID/g
- Organ distribution of F-18 signal, intestine ([1]; 5 min post i.v. injection): 2.44 % ID/g
- Organ distribution of F-18 signal, intestine ([1]; 30 min post i.v. injection): 6.62 % ID/g
- Organ distribution of F-18 signal, intestine ([1]; 60 min post i.v. injection): 8.88 % ID/g
- Organ distribution of F-18 signal, intestine ([1]; 240 min post i.v. injection): 10.54 % ID/g
- Organ distribution of F-18 signal, kidney ([1]; 2 min post i.v. injection): 7.70 % ID/g
- Organ distribution of F-18 signal, kidney ([1]; 5 min post i.v. injection): 7.76 % ID/g
- Organ distribution of F-18 signal, kidney ([1]; 30 min post i.v. injection): 7.88 % ID/g
- Organ distribution of F-18 signal, kidney ([1]; 60 min post i.v. injection): 3.63 % ID/g
- Organ distribution of F-18 signal, kidney ([1]; 240 min post i.v. injection): 0.58 % ID/g
- Organ distribution of F-18 signal, liver ([1]; 2 min post i.v. injection): 5.84 % ID/g
- Organ distribution of F-18 signal, liver ([1]; 5 min post i.v. injection): 8.93 % ID/g
- Organ distribution of F-18 signal, liver ([1]; 30 min post i.v. injection): 8.20 % ID/g
- Organ distribution of F-18 signal, liver ([1]; 60 min post i.v. injection): 6.01 % ID/g
- Organ distribution of F-18 signal, liver ([1]; 240 min post i.v. injection): 2.40 % ID/g
- Organ distribution of F-18 signal, lung ([1]; 2 min post i.v. injection): 3.52 % ID/g
- Organ distribution of F-18 signal, lung ([1]; 5 min post i.v. injection): 3.73 % ID/g
- Organ distribution of F-18 signal, lung ([1]; 30 min post i.v. injection): 1.78 % ID/g
- Organ distribution of F-18 signal, lung ([1]; 60 min post i.v. injection): 0.79 % ID/g
- Organ distribution of F-18 signal, lung ([1]; 240 min post i.v. injection): 0.15 % ID/g
- Organ distribution of F-18 signal, muscle ([1]; 2 min post i.v. injection): 2.48 % ID/g
- Organ distribution of F-18 signal, muscle ([1]; 5 min post i.v. injection): 17.41 % ID/g
- Organ distribution of F-18 signal, muscle ([1]; 30 min post i.v. injection): 0.88 % ID/g
- Organ distribution of F-18 signal, muscle ([1]; 60 min post i.v. injection): 0.47 % ID/g
- Organ distribution of F-18 signal, muscle ([1]; 240 min post i.v. injection): 0.06 % ID/g
- Organ distribution of F-18 signal, pancreas ([1]; 2 min post i.v. injection): 3.58 % ID/g
- Organ distribution of F-18 signal, pancreas ([1]; 5 min post i.v. injection): 4.30 % ID/g
- Organ distribution of F-18 signal, pancreas ([1]; 30 min post i.v. injection): 1.55 % ID/g
- Organ distribution of F-18 signal, pancreas ([1]; 60 min post i.v. injection): 0.75 % ID/g
- Organ distribution of F-18 signal, pancreas ([1]; 240 min post i.v. injection): 0.12 % ID/g
- Organ distribution of F-18 signal, skin ([1]; 2 min post i.v. injection): 1.25 % ID/g
- Organ distribution of F-18 signal, skin ([1]; 5 min post i.v. injection): 1.23 % ID/g
- Organ distribution of F-18 signal, skin ([1]; 30 min post i.v. injection): 1.51 % ID/g
- Organ distribution of F-18 signal, skin ([1]; 60 min post i.v. injection): 0.66 % ID/g
- Organ distribution of F-18 signal, skin ([1]; 240 min post i.v. injection): 0.08 % ID/g
- Organ distribution of F-18 signal, spleen ([1]; 2 min post i.v. injection): 1.32 % ID/g
- Organ distribution of F-18 signal, spleen ([1]; 5 min post i.v. injection): 2.08 % ID/g
- Organ distribution of F-18 signal, spleen ([1]; 30 min post i.v. injection): 0.87 % ID/g
- Organ distribution of F-18 signal, spleen ([1]; 60 min post i.v. injection): 0.42 % ID/g
- Organ distribution of F-18 signal, spleen ([1]; 240 min post i.v. injection): 0.06 % ID/g
- Organ distribution of F-18 signal, stomach ([1]; 2 min post i.v. injection): 3.14 % ID/g
- Organ distribution of F-18 signal, stomach ([1]; 5 min post i.v. injection): 3.52 % ID/g
- Organ distribution of F-18 signal, stomach ([1]; 30 min post i.v. injection): 1.91 % ID/g
- Organ distribution of F-18 signal, stomach ([1]; 60 min post i.v. injection): 1.89 % ID/g
- Organ distribution of F-18 signal, stomach ([1]; 240 min post i.v. injection): 0.71 % ID/g
- Organ distribution of F-18 signal, tail ([1]; 2 min post i.v. injection): 12.72 % ID/g
- Organ distribution of F-18 signal, tail ([1]; 5 min post i.v. injection): 6.80 % ID/g
- Organ distribution of F-18 signal, tail ([1]; 30 min post i.v. injection): 2.72 % ID/g
- Organ distribution of F-18 signal, tail ([1]; 60 min post i.v. injection): 3.08 % ID/g
- Organ distribution of F-18 signal, tail ([1]; 240 min post i.v. injection): 1.30 % ID/g
- Organ distribution of F-18 signal, testicle ([1]; 2 min post i.v. injection): 1.21 % ID/g
- Organ distribution of F-18 signal, testicle ([1]; 5 min post i.v. injection): 1.79 % ID/g
- Organ distribution of F-18 signal, testicle ([1]; 30 min post i.v. injection): 1.09 % ID/g
- Organ distribution of F-18 signal, testicle ([1]; 60 min post i.v. injection): 0.58 % ID/g
- Organ distribution of F-18 signal, testicle ([1]; 240 min post i.v. injection): 0.08 % ID/g
- Organ distribution of F-18 signal, thyroid ([1]; 2 min post i.v. injection): 3.59 % ID/g
- Organ distribution of F-18 signal, thyroid ([1]; 5 min post i.v. injection): 3.10 % ID/g
- Organ distribution of F-18 signal, thyroid ([1]; 30 min post i.v. injection): 1.92 % ID/g
- Organ distribution of F-18 signal, thyroid ([1]; 60 min post i.v. injection): 1.27 % ID/g
- Organ distribution of F-18 signal, thyroid ([1]; 240 min post i.v. injection): 0.41 % ID/g
- autoradiographical analysis of binding to cryosections from cortex (Aβ plaques): Specific binding in plaque-rich regions of AD samples

Source: patent US20110250135A1, “Piperazine Derivatives for Binding and Imaging Amyloid Plaques and Their Use” (Bayer Schering Pharma Aktiengesellschaft, priority 2008, published 2011)
